Laboratory results published in PMC7728344, “Pharmacokinetic Characterization of (Poly)phenolic Metabolites in Human Plasma and Urine after Acute and Short-Term Daily Consumption of Mango Pulp” (Molecules, 2020).
Like-named read-outs stand apart in the source and are kept apart here.

Key:
[1] = clinical; assay type: in vivo, human; conditions: for AUC(0-t) / Tmax / Cmax: oral, human plasma, mean ± standard error; for AUC(0-t): read-out: AUC0–24h; for Tmax: read-out: Tmax; for Cmax: 0−24 h, read-out: Cmax
Experimental: SPE procedure was conducted to extract and concentrate the (poly)phenolic compounds and their metabolites from the plasma samples. Briefly, plasma samples were thawed on ice and 500 µL plasma was diluted with 1.5 mL of 0.1% formic acid in water with addition of internal standards (2-methylhippuric acid (2 ng/mL), phloridizin (1 ng/mL)) before being loaded on preconditioned SPE cartridges. The cartridges were washed with 0.1% formic acid in water (1 mL) after loading with plasma samples. The elution of the compounds was achieved by 0.1% formic acid in methanol (1 mL) and the eluent was dried under nitrogen gas at room temperature. […] Supernatant was collected in amber HPLC vials before analysis.
The absorption and elimination of 11 major mango metabolites over 24 h was determined after MP, MP + VC, and VC intake. The plasma concentration/area at each time point was determined by the mean of 13 subjects. The time vs. concentration curves and the time vs. area curves were created using GraphPad Prism (version 8.2.1). […] Tmax is the time (h) when Cmax was achieved. Wilcoxon signed-rank test was used for Tmax analysis due to non-normal distribution. Area under the plasma concentration time curve (AUC0−24h, nmol·h/L) was calculated by the linear trapezoidal method using Microsoft Excel 2013, version 15 [63]. […]

[2] = Concentration of (poly)phenolic metabolites in fasting urine at baseline, 24 h after single MP beverage and 15th day after 14-day MP intake (UHPLC-QQQ-MS); conditions: human, urine, oral
From the text: The acute trial was a randomized, 3 arm, within-subject crossover study design (Figure 5A). The trial initiated with 3 days of food record collection to assess background (pre-study) dietary intake followed by counseling to adhere to a diet devoid of mango or its parts and relatively low in polyphenol-rich beverages/foods, which was maintained throughout the duration of the trial. […] In general, subjects were encouraged to follow their “usual” diet with the exception of foods/beverages that may interfere with the outcomes of the study. Food intake diaries and, phone call and email reminders helped subjects maintain compliance throughout the study period. After an initial 7-day run-in period on the limited polyphenol diet, subjects were assigned to a randomization sequence providing 1 of 3 study test beverages (recipes provided in Appendix A, Table A3) on three separate days in a random order: MP (500 g), MP (500 g) + VC (100 mg) or VC (100 mg) beverages. On each study day subjects arrived fasted and well hydrated. After standard admission procedures were completed (e.g., review of compliance with dietary requirements for 3 days prior to study day, dinner meal intake, usual sleep patterns), a catheter was placed by a registered nurse in subjects’ non-dominant arm and a fasting/baseline blood sample was collected (0 h). Subjects were provided with a standard breakfast meal 2 h after the study beverages. The breakfast meal was comprised of a buttermilk biscuit with butter and jelly, and scrambled egg white with shredded white cheddar cheese. After the 6 h blood collection, subjects ate a low polyphenol lunch consisting of dry roasted peanuts and fresh peeled cucumber with ranch dressing (Appendix A, Table A3).
Spot urine samples were collected in urine collection cups, immediately placed on ice and then aliquoted into individual cryovials. All the samples were stored at −80 °C until analysis.
A 14-day feeding trial was conducted with the MP only to study the effect of repetitive intake of MP on (poly)phenolic metabolite profiles. Upon completion of the acute trial, subjects were instructed to continue on the low polyphenolic diet for 2 weeks while consuming MP beverages (provided by CNRC) daily in the morning (250 g MP + 50 g water) and evening (250 g MP + 50 g water). On day 14, subjects consumed both beverages (500 g of MP in total) in the morning and reported to the CNRC on the 15th day after an overnight fast to provide a fasting blood and urine sample (Figure 5B). Blood and urine samples were collected as described above and stored at −80 °C until analysis.
The supernatant was collected and filtered through 0.2 µm polypropylene syringe filter before HPLC analysis.
The ESI conditions were the same as those used in the UHPLC-Q-TOF analysis. The quantification of the compounds was conducted by multiple-reaction monitoring (MRM) transitions. Spectra were recorded in both positive- and negative-ion mode with capillary voltage of 4500 V and drying gas flow rate of 9 L/min at 200 °C. The sheath gas temperature and flow rate were 300 °C and 11 L/min, respectively. Standards were optimized for collision energies, fragmentor voltages and MRM transitions using Mass Hunter Optimizer. The MRM transition for metabolites were created based on the results from UHPLC-Q-TOF-MS. Standards for plasma analysis were prepared in blank plasma (charcoal-stripped human plasma obtained from Bioreclamation IVT) for matrix match and for urine analysis were prepared in SMP.
The flow rate was maintained at 0.4 mL/min and the injection volume was 5 μL. The mobile phase consisted of acidified water (0.1% formic acid) (A) and acidified acetonitrile (0.1% formic acid) (B). The gradient for the separation of compounds was as follows: 5 to 5% B from 0 to 1 min; 10% B at 3 min; 15% B at 7 min; 15% B at 9 min; 20% B at 10 min; 20% B at 11 min; 25% B at 12 min; 30% B at 13 min; 30% B at 14 min; 95% B at 15 min; and back to 5% B at 16 min.

With O=C(O)c1cc(O)c(O)c(O)c1 [Compound C1, gallic acid] the “time within which absorbed” value ([1]; after acute mango intake) was 1 to 2 h, the “difference in plasma concentrations/areas after MP + VC beverage compared to MP beverage alone” value ([1]; increase observed, statistical outcome) was “not statistically significant” and the AUC(0-t) ([1]; 100 mg, after VC beverage) was 0.0249 ± 0.0019 µM·h. It also gave an AUC(0-t) ([1]; 500 g, after MP beverage, linear trapezoidal method) of 0.0645 ± 0.0078 µM·h, a Tmax ([1]; 500 g, after MP beverage) of 2.2 ± 0.4 h and a Cmax ([1]; after MP (mango pulp 500 g) beverage, n = 13) of 20.4 ± 3.1 nM. The Cmax ([1]; after MP + VC (mango pulp 500 g + vitamin C 100 mg) beverage) was 21.1 ± 3.9 nM, the Cmax ([1]; after VC (vitamin C 100 mg) beverage) was 5.3 ± 1.3 nM and the AUC(0-t) ([1]; after MP + VC beverage) was 0.0628 ± 0.0069 µM·h. For the same molecule, the Tmax ([1]; after MP + VC beverage) was 2 ± 0.3 h, the concentration at 15 day [2] was 100 nM and the concentration at 0 h ([2]; 500 g) was 200 nM. For the same molecule, the concentration at 24 h ([2]; 500 g) was 200 nM.
